Source: PubChem BioAssay (NCI)
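Where inhibition never reached the appropriate level, the endpoint shown equals the highest concentration tested. Otherwise, values were interpolated linearly from a five-concentration, 48-hour dose response in 96-well plates. GI50 is the concentration that inhibits growth by half. At the TGI there is no net growth.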

Columns and labels:
Assay in all cases: DTP human tumour cell line panel, 48 h
786-0 renal = test system: 786-0 renal
A498 renal = test system: A498 renal
A549 NSCLC = test system: A549 NSCLC
ACHN renal = test system: ACHN renal
BT-549 breast = test system: BT-549 breast
CAKI-1 renal = test system: CAKI-1 renal
COLO 205 colon = test system: COLO 205 colon
DU-145 prostate = test system: DU-145 prostate
EKVX NSCLC = test system: EKVX NSCLC
HCC-2998 colon = test system: HCC-2998 colon
HCT-116 colon = test system: HCT-116 colon
HCT-15 colon = test system: HCT-15 colon
HL-60(TB) leukemia = test system: HL-60(TB) leukemia
HOP-62 NSCLC = test system: HOP-62 NSCLC
HOP-92 NSCLC = test system: HOP-92 NSCLC
HS 578T breast = test system: HS 578T breast
HT29 colon = test system: HT29 colon
IGROV1 ovarian = test system: IGROV1 ovarian
K-562 leukemia = test system: K-562 leukemia
KM12 colon = test system: KM12 colon
LOX IMVI melanoma = test system: LOX IMVI melanoma
M14 melanoma = test system: M14 melanoma
MALME-3M melanoma = test system: MALME-3M melanoma
MCF7 breast = test system: MCF7 breast
MDA-MB-231 breast = test system: MDA-MB-231 breast
MDA-MB-435 = test system: MDA-MB-435
MOLT-4 leukemia = test system: MOLT-4 leukemia
NCI-H226 lung = test system: NCI-H226 lung
NCI-H23 lung = test system: NCI-H23 lung
NCI-H460 lung = test system: NCI-H460 lung
NCI-H522 lung = test system: NCI-H522 lung
NCI/ADR-RES ovarian = test system: NCI/ADR-RES ovarian
OVCAR-3 ovarian = test system: OVCAR-3 ovarian
OVCAR-4 ovarian = test system: OVCAR-4 ovarian
OVCAR-5 ovarian = test system: OVCAR-5 ovarian
OVCAR-8 ovarian = test system: OVCAR-8 ovarian
PC-3 prostate = test system: PC-3 prostate
RPMI-8226 leukemia = test system: RPMI-8226 leukemia
RXF 393 renal = test system: RXF 393 renal
SF-268 CNS = test system: SF-268 CNS
SF-295 CNS = test system: SF-295 CNS
SF-539 CNS = test system: SF-539 CNS
SK-MEL-2 melanoma = test system: SK-MEL-2 melanoma
SK-MEL-28 melanoma = test system: SK-MEL-28 melanoma
SK-MEL-5 melanoma = test system: SK-MEL-5 melanoma
SN12C renal = test system: SN12C renal
SNB-19 CNS = test system: SNB-19 CNS
SNB-75 CNS = test system: SNB-75 CNS
SR leukemia = test system: SR leukemia
SW-620 colon = test system: SW-620 colon
T-47D breast = test system: T-47D breast
TK-10 renal = test system: TK-10 renal
U251 CNS = test system: U251 CNS
UACC-257 melanoma = test system: UACC-257 melanoma
UACC-62 melanoma = test system: UACC-62 melanoma
UO-31 renal = test system: UO-31 renal
CCRF-CEM leukemia = test system: CCRF-CEM leukemia
SK-OV-3 ovarian = test system: SK-OV-3 ovarian

## CN1CCN(c2ccc(NC3=C(Cl)C(=O)c4ncccc4C3=O)cc2C(F)(F)F)CC1
786-0 renal
  GI50: 1840 nM
  TGI: 3.32 µM
A498 renal
  GI50: 11.3 µM
  TGI: 24.2 µM
A549 NSCLC
  GI50: 18.8 µM
  TGI: 38 µM
ACHN renal
  GI50: 1480 nM
  TGI: 2800 nM
BT-549 breast
  GI50: 13 µM
  TGI: 26.3 µM
CAKI-1 renal
  GI50: 1720 nM
  TGI: 3.13 µM
COLO 205 colon
  GI50: 1890 nM
  TGI: 4.63 µM
DU-145 prostate
  GI50: 1910 nM
  TGI: 3.71 µM
EKVX NSCLC
  GI50: 2660 nM
  TGI: 8.44 µM
HCC-2998 colon
  GI50: 7.51 µM
  TGI: 20.8 µM
HCT-116 colon
  GI50: 1690 nM
  TGI: 3.27 µM
HCT-15 colon
  GI50: 1390 nM
  TGI: 3000 nM
HL-60(TB) leukemia
  GI50: 1790 nM
  TGI: 4.73 µM
HOP-62 NSCLC
  GI50: 17.4 µM
  TGI: 37.1 µM
HOP-92 NSCLC
  GI50: 1580 nM
  TGI: 3.03 µM
HS 578T breast
  GI50: 3.31 µM
  TGI: 42.3 µM
HT29 colon
  GI50: 2340 nM
  TGI: 5.56 µM
IGROV1 ovarian
  GI50: 1560 nM
  TGI: 3.18 µM
K-562 leukemia
  GI50: 435 nM
  TGI: > 100 µM
KM12 colon
  GI50: 14.4 µM
  TGI: 30.1 µM
LOX IMVI melanoma
  GI50: 1530 nM
  TGI: 2940 nM
M14 melanoma
  GI50: 1780 nM
  TGI: 3.67 µM
MALME-3M melanoma
  GI50: 1460 nM
  TGI: 2830 nM
MCF7 breast
  GI50: 1700 nM
  TGI: 4.23 µM
MDA-MB-231 breast
  GI50: 1690 nM
  TGI: 5.02 µM
MDA-MB-435
  GI50: 1790 nM
  TGI: 3.3 µM
MOLT-4 leukemia
  GI50: 304 nM
  TGI: 2670 nM
NCI-H226 lung
  GI50: 13 µM
  TGI: 29.9 µM
NCI-H23 lung
  GI50: 1870 nM
  TGI: 3.87 µM
NCI-H460 lung
  GI50: 17.4 µM
  TGI: 34.8 µM
NCI-H522 lung
  GI50: 1630 nM
  TGI: 3.39 µM
NCI/ADR-RES ovarian
  GI50: 2460 nM
  TGI: 7.47 µM
OVCAR-3 ovarian
  GI50: 297 nM
  TGI: 1110 nM
OVCAR-4 ovarian
  GI50: 1090 nM
  TGI: 2310 nM
OVCAR-5 ovarian
  GI50: 2200 nM
  TGI: 5.14 µM
OVCAR-8 ovarian
  GI50: 3.14 µM
  TGI: 12.4 µM
PC-3 prostate
  GI50: 2230 nM
  TGI: 6.85 µM
RPMI-8226 leukemia
  GI50: 874 nM
  TGI: 6.66 µM
RXF 393 renal
  GI50: 1520 nM
  TGI: 2910 nM
SF-268 CNS
  GI50: 3.3 µM
  TGI: 14 µM
SF-295 CNS
  GI50: 16.6 µM
  TGI: 30.4 µM
SF-539 CNS
  GI50: 1740 nM
  TGI: 3.53 µM
SK-MEL-2 melanoma
  GI50: 3.32 µM
  TGI: 8.79 µM
SK-MEL-28 melanoma
  GI50: 1990 nM
  TGI: 3.45 µM
SK-MEL-5 melanoma
  GI50: 3.52 µM
  TGI: 13.3 µM
SN12C renal
  GI50: 1790 nM
  TGI: 3.31 µM
SNB-19 CNS
  GI50: 13.6 µM
  TGI: 26.8 µM
SNB-75 CNS
  GI50: 5.44 µM
  TGI: 19.8 µM
SR leukemia
  GI50: 355 nM
  TGI: 3.66 µM
SW-620 colon
  GI50: 1350 nM
  TGI: 3.37 µM
T-47D breast
  GI50: 1330 nM
  TGI: 5.31 µM
TK-10 renal
  GI50: 1920 nM
  TGI: 3.45 µM
U251 CNS
  GI50: 4.45 µM
  TGI: 17 µM
UACC-257 melanoma
  GI50: 1620 nM
  TGI: 3.09 µM
UACC-62 melanoma
  GI50: 1880 nM
  TGI: 3.81 µM
UO-31 renal
  GI50: 1500 nM
  TGI: 2820 nM

## CCOC(=O)c1c(N2CCOCC2)[nH]c(=O)c(C(c2ccc(N(C)C)cc2)c2c(O)c(C(=O)OCC)c(N3CCOCC3)[nH]c2=O)c1O
786-0 renal
  TGI: > 100 µM
A498 renal
  TGI: > 100 µM
A549 NSCLC
  TGI: > 100 µM
ACHN renal
  TGI: > 100000 nM
BT-549 breast
  TGI: > 100 µM
CAKI-1 renal
  TGI: > 100 µM
CCRF-CEM leukemia
  TGI: > 100 µM
COLO 205 colon
  TGI: > 100 µM
DU-145 prostate
  TGI: > 100 µM
EKVX NSCLC
  TGI: > 100 µM
HCC-2998 colon
  TGI: > 100 µM
HCT-116 colon
  TGI: > 100 µM
HCT-15 colon
  TGI: > 100000 nM
HOP-62 NSCLC
  TGI: > 100 µM
HOP-92 NSCLC
  TGI: > 100 µM
HS 578T breast
  TGI: > 100 µM
HT29 colon
  TGI: > 100 µM
K-562 leukemia
  TGI: > 100 µM
KM12 colon
  TGI: > 100 µM
LOX IMVI melanoma
  TGI: > 100000 nM
M14 melanoma
  TGI: > 100 µM
MALME-3M melanoma
  TGI: > 100000 nM
MCF7 breast
  TGI: > 100 µM
MDA-MB-231 breast
  TGI: > 100 µM
MDA-MB-435
  TGI: > 100 µM
MOLT-4 leukemia
  TGI: > 100000 nM
NCI-H226 lung
  TGI: > 100 µM
NCI-H23 lung
  TGI: > 100 µM
NCI-H460 lung
  TGI: > 100 µM
NCI-H522 lung
  TGI: > 100 µM
NCI/ADR-RES ovarian
  TGI: > 100 µM
OVCAR-3 ovarian
  TGI: > 100000 nM
OVCAR-4 ovarian
  TGI: > 100000 nM
OVCAR-5 ovarian
  TGI: > 100 µM
OVCAR-8 ovarian
  TGI: > 100 µM
PC-3 prostate
  TGI: > 100 µM
RPMI-8226 leukemia
  TGI: > 100 µM
RXF 393 renal
  TGI: > 100000 nM
SF-268 CNS
  TGI: > 100 µM
SF-295 CNS
  TGI: > 100 µM
SF-539 CNS
  TGI: > 100 µM
SK-MEL-2 melanoma
  TGI: > 100 µM
SK-MEL-28 melanoma
  TGI: > 100 µM
SK-MEL-5 melanoma
  TGI: > 100 µM
SK-OV-3 ovarian
  TGI: > 100 µM
SN12C renal
  TGI: > 100 µM
SNB-19 CNS
  TGI: > 100 µM
SNB-75 CNS
  TGI: > 100 µM
SR leukemia
  TGI: > 100 µM
SW-620 colon
  TGI: > 100 µM
T-47D breast
  TGI: > 100 µM
TK-10 renal
  TGI: > 100 µM
U251 CNS
  TGI: > 100 µM
UACC-257 melanoma
  TGI: > 100 µM
UACC-62 melanoma
  TGI: > 100 µM
UO-31 renal
  TGI: > 100000 nM
